pKi: −log10 of the molar value.

Drawing on patent US20040156869A1, “2-substituted quinazolin-4-ylamine analogues” (Neurogen Corporation, priority 2002, published 2004), this text covers Ki for 32 compounds.

Sequence of human capsaicin receptor (VR1) (Q8NER1 whole entry): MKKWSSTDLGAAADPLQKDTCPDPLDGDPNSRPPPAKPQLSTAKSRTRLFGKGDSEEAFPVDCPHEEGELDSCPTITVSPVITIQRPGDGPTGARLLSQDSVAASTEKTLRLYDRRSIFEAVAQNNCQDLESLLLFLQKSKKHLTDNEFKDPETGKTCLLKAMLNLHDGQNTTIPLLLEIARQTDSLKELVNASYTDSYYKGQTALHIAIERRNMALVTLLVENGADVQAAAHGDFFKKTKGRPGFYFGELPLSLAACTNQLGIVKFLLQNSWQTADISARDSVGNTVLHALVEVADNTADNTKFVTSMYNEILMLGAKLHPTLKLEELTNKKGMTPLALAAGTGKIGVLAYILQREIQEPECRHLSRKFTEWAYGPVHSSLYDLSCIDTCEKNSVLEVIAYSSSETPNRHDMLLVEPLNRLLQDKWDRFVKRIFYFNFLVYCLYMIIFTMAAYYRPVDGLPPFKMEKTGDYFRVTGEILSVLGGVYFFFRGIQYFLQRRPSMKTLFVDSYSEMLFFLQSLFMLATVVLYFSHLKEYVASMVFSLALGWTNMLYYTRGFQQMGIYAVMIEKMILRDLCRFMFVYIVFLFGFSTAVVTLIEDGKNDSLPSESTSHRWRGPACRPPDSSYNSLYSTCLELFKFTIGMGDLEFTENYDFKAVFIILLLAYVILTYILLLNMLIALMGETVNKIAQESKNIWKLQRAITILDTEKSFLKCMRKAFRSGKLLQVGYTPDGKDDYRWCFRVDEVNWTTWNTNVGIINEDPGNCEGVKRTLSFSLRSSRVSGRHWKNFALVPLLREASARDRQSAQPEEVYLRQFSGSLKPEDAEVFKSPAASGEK

This assay addresses human capsaicin receptor (VR1) (Homo sapiens, UniProt Q8NER1). Description: Capsaicin receptor binding assay ([3H]RTX competition, VR1-transfected HEK293 membranes).
As to `CC(C)COCc1nc(Nc2ccc(S(=O)(=O)C(F)(F)F)cc2)c2ccc(-c3ncccc3Cl)nc2n1` [Compound 181, [7-(3-Chloro-pyridin-2-yl)-2-isobutoxymethyl-pyrido[2,3-d]pyrimidin-4-yl]-(4-trifluoromethanesulfonyl-phenyl)-amine], the pKi (usually −log10 of the Ki, conventionally taken in molar units) is more than 6.00.
On to `COCc1nc(Nc2ccc(C(F)(F)F)c(C)c2)c2ccc(-c3ncccc3C(F)(F)F)nc2n1` [Compound 182, [2-Methoxymethyl-7-(3-trifluoromethyl-pyridin-2-yl)-pyrido[2,3-d]pyrimidin-4-yl]-(3-methyl-4-trifluoromethyl-phenyl)-amine], for which the pKi was more than 6.00.
The result for `Cc1cc(Nc2nc(COCC(C)C)nc3nc(-c4ncccc4C)ccc23)ccc1C(F)(F)F` [Compound 183, [2-Isobutoxymethyl-7-(3-methyl-pyridin-2-yl)-pyrido[2,3-d]pyrimidin-4-yl]-(3-methyl-4-trifluoromethyl-phenyl)-amine] reads more than 6.00.
The result for `CCOCc1nc(Nc2ccc(C(F)(F)F)c(C)c2)c2ccc(-c3ncccc3Cl)nc2n1` [Compound 184, [7-(3-Chloro-pyridin-2-yl)-2-ethoxymethyl-pyrido[2,3-d]pyrimidin-4-yl]-(3-methyl-4-trifluoromethyl-phenyl)-amine] reads more than 6.00.
The result for `CCOC(=O)c1nc(Nc2ccc(C(C)(C)C)cc2)c2ccc(-c3ncccc3C)nc2n1` [Compound 185, 4-(4-tert-Butyl-phenylamino)-7-(3-methyl-pyridin-2-yl)-pyrido[2,3-d]pyrimidine-2-carboxylic acid ethyl ester] reads more than 6.00; that for `O=S(=O)(c1ccc(Nc2nc(CO)nc3cc(-c4ncccc4C(F)(F)F)ccc23)cc1)N1CCCCC1` [Compound 186, [4-[4-(Piperidine-1-sulfonyl)-phenylamino]-7-(3-trifluoromethyl-pyridin-2-yl)-quinazolin-2-yl]-methanol], more than 6.00; that for `CN(C(C)(C)C)S(=O)(=O)c1ccc(Nc2nc(CO)nc3cc(-c4ncccc4C(F)(F)F)ccc23)cc1` [Compound 187, N-tert-Butyl-4-[2-hydroxymethyl-7-(3-trifluoromethyl-pyridin-2-yl)-quinazolin-4-ylamino]-N-methyl-benzenesulfonamide], more than 6.00.
`COCc1nc(Nc2ccc(OC(F)(F)F)cc2)c2ccc(-c3ncccc3C(F)(F)F)nc2n1` [Compound 188, [2-Methoxymethyl-7-(3-trifluoromethyl-pyridin-2-yl)-pyrido[2,3-d]pyrimidin-4-yl]-(4-trifluoromethoxy-phenyl)-amine] had a pKi of more than 6.00.
The result for `CC(C)COCc1nc(Nc2ccc(OC(F)(F)F)cc2)c2ccc(-c3ncccc3C(F)(F)F)nc2n1` [Compound 189, [2-Isobutoxymethyl-7-(3-trifluoromethyl-pyridin-2-yl)-pyrido[2,3-d]pyrimidin-4-yl]-(4-trifluoromethoxy-phenyl)-amine] reads more than 6.00; that for `Cc1cccnc1-c1ccc2c(Nc3ccc(OC(F)(F)F)cc3)nc(COCC(C)C)nc2n1` [Compound 190, [2-Isobutoxymethyl-7-(3-methyl-pyridin-2-yl)-pyrido[2,3-d]pyrimidin-4-yl]-(4-trifluoromethoxy-phenyl)-amine], more than 6.00; that for `COCc1nc(Nc2ccc(C(C)(C)C)nc2)c2ccc(-c3ncccc3C(F)(F)F)nc2n1` [Compound 191, (6-tert-Butyl-pyridin-3-yl)-[2-methoxymethyl-7-(3-trifluoromethyl-pyridin-2-yl)-pyrido[2,3-d]pyrimidin-4-yl]-amine], more than 6.00.
The result for `CC(C)COCc1nc(Nc2ccc(C(C)(C)C)nc2)c2ccc(-c3ncccc3C(F)(F)F)nc2n1` [Compound 192, (6-tert-Butyl-pyridin-3-yl)-[2-isobutoxymethyl-7-(3-trifluoromethyl-pyridin-2-yl)-pyrido[2,3-d]pyrimidin-4-yl]-amine] reads more than 6.00; that for `Cc1cccnc1-c1ccc2c(Nc3ccc(C(C)(C)C)nc3)nc(COCC(C)C)nc2n1` [Compound 193, (6-tert-Butyl-pyridin-3-yl)-[2-isobutoxymethyl-7-(3-methyl-pyridin-2-yl)-pyrido[2,3-d]pyrimidin-4-yl]-amine], more than 6.00; that for `CC(C)COCc1nc(Nc2ccc(C(C)(C)C)nc2)c2ccc(-c3ncccc3Cl)nc2n1` [Compound 194, (6-tert-Butyl-pyridin-3-yl)-[7-(3-chloro-pyridin-2-yl)-2-isobutoxymethyl-pyrido[2,3-d]pyrimidin-4-yl]-amine], more than 6.00.
The compound `COCc1nc(Nc2ccc(OC(F)(F)F)cc2)c2ccc(-c3ncccc3Cl)nc2n1` [Compound 195, [7-(3-Chloro-pyridin-2-yl)-2-methoxymethyl-pyrido[2,3-d]pyrimidin-4-yl]-(4-trifluoromethoxy-phenyl)-amine] had a negative-log Ki (pKi) of more than 6.00.
The result for `COCc1nc(Nc2ccc(OC(F)(F)F)cc2)c2ccc(-c3ncccc3C)nc2n1` [Compound 196, [2-Methoxymethyl-7-(3-methyl-pyridin-2-yl)-pyrido[2,3-d]pyrimidin-4-yl]-(4-trifluoromethoxy-phenyl)-amine] reads more than 6.00.
For `COCc1nc(Nc2ccc(C(F)(F)F)c(C)c2)c2ccc(-c3ncccc3Cl)nc2n1` [Compound 197, [7-(3-Chloro-pyridin-2-yl)-2-methoxymethyl-pyrido[2,3-d]pyrimidin-4-yl]-(3-methyl-4-trifluoromethyl-phenyl)-amine] the value was more than 6.00; for `COCc1nc(Nc2ccc(C(F)(F)F)c(C)c2)c2ccc(-c3ncccc3C)nc2n1` [Compound 198, [2-Methoxymethyl-7-(3-methyl-pyridin-2-yl)-pyrido[2,3-d]pyrimidin-4-yl]-(3-methyl-4-trifluoromethyl-phenyl)-amine], more than 6.00.
The compound `COCc1nc(Nc2ccc(C(C)(C)C)nc2)c2ccc(-c3ncccc3Cl)nc2n1` [Compound 199, (6-tert-Butyl-pyridin-3-yl)-[7-(3-chloro-pyridin-2-yl)-2-methoxymethyl-pyrido[2,3-d]pyrimidin-4-yl]-amine] gave a pKi of more than 6.00.
For `COCc1nc(Nc2ccc(C(C)(C)C)nc2)c2ccc(-c3ncccc3C)nc2n1` [Compound 200, (6-tert-Butyl-pyridin-3-yl)-[2-methoxymethyl-7-(3-methyl-pyridin-2-yl)-pyrido[2,3-d]pyrimidin-4-yl]-amine] the value was more than 6.00; for `CC(C)(C)c1ccc(Nc2nc(CO)nc3cc(-c4ncccc4C(F)(F)F)cnc23)cc1` [Compound 201, [4-(4-tert-Butyl-phenylamino)-7-(3-trifluoromethyl-pyridin-2-yl)-pyrido[3,2-d]pyrimidin-2-yl]-methanol], more than 6.00.
The result for `O=S(=O)(c1ccc(Nc2nc(CO)nc3cc(-c4ncccc4C(F)(F)F)cnc23)cc1)N1CCCCC1` [Compound 202, [4-[4-(Piperidine-1-sulfonyl)-phenylamino]-7-(3-trifluoromethyl-pyridin-2-yl)-pyrido[3,2-d]pyrimidin-2-yl]-methanol] reads more than 6.00.
For `CN(C(C)(C)C)S(=O)(=O)c1ccc(Nc2nc(CO)nc3cc(-c4ncccc4C(F)(F)F)cnc23)cc1` [Compound 203, N-tert-Butyl-4-[2-hydroxymethyl-7-(3-trifluoromethyl-pyridin-2-yl)-pyrido[3,2-d]pyrimidin-4-ylamino]-N-methyl-benzenesulfonamide] the value was more than 6.00; for `Cc1cccnc1-c1ccc2c(Nc3ccc(C(C)(C)C)cc3)nc(CO)nc2n1` [Compound 204, [4-(4-tert-Butyl-phenylamino)-7-(3-methyl-pyridin-2-yl)-pyrido[2,3d]pyrimidin-2-yl]-methanol], more than 6.00.
As to `Cc1cccnc1-c1ccc2c(Nc3ccc(C(F)(F)F)cc3)nc(C(=O)O)nc2n1` [Compound 205, 7-(3-Methyl-pyridin-2-yl)-4-(4-trifluoromethyl-phenylamino)-pyrido[2,3-d]pyrimidine-2-carboxylic acid], the pKi is more than 6.00.
The result for `O=C(O)c1nc(Nc2ccc(C(F)(F)F)cc2)c2ccc(-c3ncccc3C(F)(F)F)nc2n1` [Compound 206, 4-(4-Trifluoromethyl-phenylamino)-7-(3-trifluoromethyl-pyridin-2-yl)-pyrido[2,3-d]pyrimidine-2-carboxylic acid] reads more than 6.00.
For `Cc1cccnc1-c1ccc2c(Nc3ccc(C(C)(C)C)cc3)nc(C(=O)O)nc2n1` [Compound 207, 4-(4-tert-Butyl-phenylamino)-7-(3-methyl-pyridin-2-yl)-pyrido[2,3-d]pyrimidine-2-carboxylic acid] the value was more than 6.00; for `COCc1nc(Nc2ccc(C(C)(C)C(C)=O)cc2)c2ccc(-c3ncccc3C(F)(F)F)nc2n1` [Compound 208, 3-{4-[2-Methoxymethyl-7-(3-trifluoromethyl-pyridin-2-yl)-pyrido[2,3-d]pyrimidin-4-ylamino]-phenyl}-3-methyl-butan-2-one], more than 6.00.
The result for `CC(=O)C(C)(C)c1ccc(Nc2nc(COCC(C)C)nc3nc(-c4ncccc4C)ccc23)cc1` [Compound 209, 3-{4-[2-Isobutoxymethyl-7-(3-methyl-pyridin-2-yl)-pyrido[2,3-d]pyrimidin-4-ylamino]-phenyl}-3-methyl-butan-2-one] reads more than 6.00; that for `CC(=O)C(C)(C)c1ccc(Nc2nc(COCC(C)C)nc3nc(-c4ncccc4Cl)ccc23)cc1` [Compound 210, 3-{4-[7-(3-Chloro-pyridin-2-yl)-2-isobutoxymethyl-pyrido[2,3-d]pyrimidin-4-ylamino]-phenyl}-3-methyl-butan-2-one], more than 6.00; that for `CC(=O)C(C)(C)c1ccc(Nc2nc(COCC(C)C)nc3nc(-c4ncccc4C(F)(F)F)ccc23)cc1` [Compound 211, 3-{4-[2-Isobutoxymethyl-7-(3-trifluoromethyl-pyridin-2-yl)-pyrido[2,3-d]pyrimidin-4-ylamino]-phenyl}-3-methyl-butan-2-one], more than 6.00.
On to `COCc1nc(Nc2ccc(C(C)(C)C(C)=O)cc2)c2ccc(-c3ncccc3C)nc2n1` [Compound 212, 3-{4-[2-Methoxymethyl-7-(3-methyl-pyridin-2-yl)-pyrido[2,3-d]pyrimidin-4-ylamino]-phenyl}-3-methyl-butan-2-one], for which the pKi is more than 6.00.
